Consider one molecule from ChEMBL document CHEMBL1152076, “Alteration of Na+ permeability in human erythrocytes as studied by 23Na-NMR and inhibition of the kidney Na+,K+-ATPase activities with saponins: Interaction of Gleditsia saponins with human erythrocyte membranes” (Bioorg Med Chem Lett, 1995).

This assay concerns the target Sodium/potassium-transporting ATPase (Rattus norvegicus). As to the kind of experiment: Inhibitory activity against rat kidney Na+/K+ ATPase was determined by fiske subbarow method.

One may read the IC50 as the concentration that inhibits the measured activity by half. High values mean weaker potency, low ones greater potency. `C=C[C@@](C)(O)CC/C=C(\C)C(=O)OC1C(COCCCC2OC(CCCOOC(=O)C34CCC(C)(C)CC3C3=CCC5[C@@]6(C)CCC(OC7OC(CCOCCC8OCC(O)C(O)C8OC8OCC(O)C(O)C8O)C(O)C(O)C7O)C(C)(C)C6CC[C@@]5(C)[C@]3(C)C[C@H]4O)C(OCC3OC(C)C(OCCCCCCCCC4OCC(O)C(OC5OCC(O)C(O)C5O)C4O)C(O)C3O)C(O)C2O)OC(C)C(O)C1OC(=O)/C(=C/CC[C@](C)(O)C=C)CO` (stereo partly specified) registered an IC50 of 400 µM.
